Test results from ChEMBL document CHEMBL5500360, “Discovery of N-(4-((6-(3,5- Dimethoxyphenyl)-9H-purine derivatives as irreversible covalent FGFR inhibitors” (Eur J Med Chem, 2024).
Active and inactive are the calls of the source. The calls are words filed in the database; no cut-off is given here.

Tests used:
HepG2 = experiment: cells; conditions: Homo sapiens, HepG2, 72 h
MDA-MB-231 [1] = experiment: Cell cycle arrest in human MDA-MB-231 cells assessed as accumulation of G2-M phase cells at 5 uM incubated for 24 hrs by […]PI staining based flow cytometric analysis (reference value: 16.88%); assay type: functional
KYSE-150 cell line = experiment: cells; conditions: Homo sapiens, KYSE-150, 72 h
Description: Antiproliferative activity against human KYSE-150 cells assessed as inhibition of cell growth incubated for 72 hrs by MTT assay

MDA-MB-231 [2] = experiment: Induction of apoptosis in human MDA-MB-231 cells assessed as apoptotic cells at 5 uM incubated for 24 hrs by Annexin V-FITC/PI staining based flow cytometric analysis relative to control; assay type: functional
MDA-MB-231 [3] = experiment: cells; conditions: Homo sapiens, MDA-MB-231, 72 h
MDA-MB-231 [4] = experiment: Induction of apoptosis in human MDA-MB-231 cells assessed as late apoptotic cells at 5 uM incubated for 24 hrs by Annexin V-FITC/PI staining based flow cytometric analysis (reference value: 0.161 %); assay type: functional
MDA-MB-231 [5] = experiment: Cell cycle arrest in human MDA-MB-231 cells assessed as accumulation of S phase cells at 5 uM incubated for 24 hrs by […]PI staining based flow cytometric analysis (reference value: 41.29%); assay type: functional
MDA-MB-231 [6] = experiment: Induction of apoptosis in human MDA-MB-231 cells assessed as necrotic cells at 5 uM incubated for 24 hrs by Annexin V-FITC/PI staining based flow cytometric analysis (reference value: 0.063 %); assay type: functional
MDA-MB-231 [7] = experiment: Induction of apoptosis in human MDA-MB-231 cells assessed as early apoptotic cells at 5 uM incubated for 24 hrs by Annexin V-FITC/PI staining based flow cytometric analysis (reference value: 0.131 %); assay type: functional
MDA-MB-231 [8] = experiment: Induction of ROS production in human MDA-MB-231 cells at 5 uM incubated for 12 hrs by flow cytometry based confocal microscopic analysis; assay type: functional, cell-based
MDA-MB-231 [9] = experiment: Inhibition of cell migration in human MDA-MB-231 cells at 2.5 uM incubated for 12 hrs by cell scratch assay; assay type: functional, cell-based
MDA-MB-231 [10] = experiment: Cell cycle arrest in human MDA-MB-231 cells assessed as accumulation of G0-G1 phase cells at 5 uM incubated for 24 hrs by […]PI staining based flow cytometric analysis (reference value: 41.83%); assay type: functional
MDA-MB-231 [11] = experiment: Antitumor activity against human MDA-MB-231 cells xenografted in female BALB/c athymic nude mouse assessed as tumor growth inhibition at 10 mg/kg, po administered once a day via gavage for 21 days relative to control; assay type: functional; conditions: MDA-MB-231, 504 h, time 21 day, read-out: TGI
MDA-MB-231 [12] = experiment: Induction of apoptosis in human MDA-MB-231 cells assessed as viable cells at 5 uM incubated for 24 hrs by Annexin V-FITC/PI staining based flow cytometric analysis (reference value: 99.645%); assay type: functional; conditions: read-out: Activity
MDA-MB-435 = experiment: cells; conditions: Homo sapiens, MDA-MB-435, 72 h
Description: Antiproliferative activity against human MDA-MB-435 cells assessed as inhibition of cell growth incubated for 72 hrs by MTT assay

in vitro = conditions: human, HUVEC cells
Description: Cytotoxicity against HUVEC cells assessed as inhibition of cell growth incubated for 72 hrs by MTT assay

IC50 (HepG2): 3.13 µM
IC50 (KYSE-150 cell line): 8.92 µM
IC50 (MDA-MB-231 [3]): 7.19 µM
IC50 (MDA-MB-435): 21.6 µM
IC50 at 72 h (in vitro): 38 µM
Structure (SMILES): COc1cc(CCc2cc(NC(=O)c3ccc(N4C[C@@H](C)N[C@@H](C)C4)cc3)n[nH]2)cc(OC)c1 [FEXAGRATINIB]
Activity (MDA-MB-231 [1]): 14.77%
Activity (MDA-MB-231 [2]): 37.3%
Activity (MDA-MB-231 [4]): 10.3%
Activity (MDA-MB-231 [5]): 26.31%
Activity (MDA-MB-231 [6]): 2.72%
Activity (MDA-MB-231 [7]): 29%
Activity (MDA-MB-231 [8]): Active
inhibition (MDA-MB-231 [9]): Active
Activity (MDA-MB-231 [10]): 58.92%
inhibition in vivo at 10 mg/kg (MDA-MB-231 [11]): 52.6%
viability at 5 µM (MDA-MB-231 [12]): 58%
